Test results: publication PMC12172689 (ACS infectious diseases, 2025)
Numbering of substitutions follows the chain as printed.

Legend:
TgCDPK1 128G = target: T1, TgCDPK1 128G (Toxoplasma gondii, UniProt Q9BJF5); assay: TgCDPK1 enzyme inhibition assay (Kinase Glo), wild type glycine gatekeeper; assay type: biochemical; conditions: read-out: TgCDPK1 128G IC50, 10 μM ATP
T1 sequence (Q9BJF5 1-507): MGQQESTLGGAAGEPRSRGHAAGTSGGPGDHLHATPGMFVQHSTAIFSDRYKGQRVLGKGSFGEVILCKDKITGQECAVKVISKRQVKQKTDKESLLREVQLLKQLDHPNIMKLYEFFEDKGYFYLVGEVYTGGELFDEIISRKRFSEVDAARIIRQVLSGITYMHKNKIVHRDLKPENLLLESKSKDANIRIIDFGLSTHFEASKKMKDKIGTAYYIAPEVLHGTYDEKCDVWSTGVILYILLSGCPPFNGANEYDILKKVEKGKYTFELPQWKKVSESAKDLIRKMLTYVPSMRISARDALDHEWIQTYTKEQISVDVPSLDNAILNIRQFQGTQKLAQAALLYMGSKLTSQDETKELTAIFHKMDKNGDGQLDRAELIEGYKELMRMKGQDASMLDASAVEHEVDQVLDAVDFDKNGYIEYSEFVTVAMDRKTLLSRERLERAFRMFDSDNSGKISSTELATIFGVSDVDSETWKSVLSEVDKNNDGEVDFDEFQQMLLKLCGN

[1] = tested on: T. gondii with a L162Q substitution in TgMAPKL1; assay: T. gondii proliferation inhibition assay, β-galactosidase readout, TgMAPKL1 L162Q strain; assay type: cell-based, Toxoplasma gondii; conditions: for Fold Increase EC50: TgMAPKL1 L162Q vs parent strain, β-galactosidase assay; for EC50: read-out: TgMAPKL1 L162Q EC50 (95% CI), TgMAPKL1 L162Q strain, β-galactosidase activity, 72 h
[2] = tested on: T. gondii TgMAPKL1 parental strain (RH, β-galactosidase transgene); assay: T. gondii proliferation inhibition assay, β-galactosidase readout, parent strain; assay type: cell-based, Toxoplasma gondii; conditions: read-out: TgMAPKL1 Parental EC50 (95% CI), β-galactosidase activity, 72 h
TgCDPK1 128M = target: T2, TgCDPK1 128M (Toxoplasma gondii, UniProt Q9BJF5, G128M); assay: TgCDPK1 enzyme inhibition assay (Kinase Glo), methionine gatekeeper mutant; assay type: biochemical; conditions: for Fold Increase IC50: TgCDPK1 128M vs 128G; for IC50: read-out: TgCDPK1 128M IC50, introduced methionine gatekeeper, 10 μM ATP
T2 sequence (Q9BJF5 1-507 G128M): T1 sequence (Q9BJF5 1-507) with G128M

[3] = tested on: RH-strain T. gondii tachyzoites; assay: Determination of mutagen concentration killing T. gondii tachyzoites; assay type: cell-based, Toxoplasma gondii; conditions: RH-strain tachyzoites expressing β-galactosidase and GFP
T. gondii cell cycle = conditions: cited from earlier work
T. gondii TgCDPK1 G128M = assay: T. gondii proliferation inhibition, remaining host cell nuclei (DAPI), TgCDPK1 G128M strain; assay type: cell-based, Toxoplasma gondii
T. gondii parent strain = assay: T. gondii proliferation inhibition, remaining host cell nuclei (DAPI), parent strain; assay type: cell-based, Toxoplasma gondii; conditions: read-out: parent EC50 (95% CI), 5 days
[4] = tested on: T. gondii TgCDPK1 G128M TgMAPKL1 L162Q; assay: T. gondii proliferation inhibition, remaining host cell nuclei (DAPI), double mutant G128M/L162Q; assay type: cell-based, Toxoplasma gondii; conditions: for EC50: read-out: TgCDPK1 G128M TgMAPKL1 L162Q EC50 (95% CI), double mutant, remaining host cell nuclei, 5 days
T. gondii TgCDPK1 G128T = assay: T. gondii proliferation inhibition, remaining host cell nuclei (DAPI), TgCDPK1 G128T strain; assay type: cell-based, Toxoplasma gondii; conditions: read-out: TgCDPK1 G128T EC50 (95% CI), 5 days
T. gondii TgMAPKL1 L162Q = assay: T. gondii proliferation inhibition, remaining host cell nuclei (DAPI), TgMAPKL1 L162Q strain; assay type: cell-based, Toxoplasma gondii; conditions: for EC50: read-out: TgMAPKL1 L162Q EC50 (95% CI), remaining host cell nuclei, 5 days
T. gondii TgMAPKL1 S191Y = conditions: cited from earlier work
[5] = vs parent strain, host cell nuclei assay

CCOc1ccc2cc(-c3nn(C4CCOCC4)c(N)c3C(N)=O)ccc2n1 [BKI-1841]
IC50 (TgCDPK1 128G): 30 nM | Fold Increase EC50 [1]: 2.90 fold | EC50 [1]: 400 nM | EC50 [2]: 140 nM | Fold Increase IC50 (TgCDPK1 128M): 585 fold | IC50 (TgCDPK1 128M): 17.6 µM

CCOc1ccc2cc(-c3nn(C(C)(C)C)c(N)c3C(N)=O)cnc2c1 [BKI-1517]
EC50 [1]: 290 nM | EC50 [2]: 80 nM

CCN(N=O)C(N)=O [ENU, N-ethyl-N-nitrosourea]
concentration required to kill 70% of a population of tachyzoites [3]: 2 mM

Cc1cccc(-c2[nH]c(C(C)(C)C)nc2-c2ccc3c(c2)OCO3)n1 [SB505124]
effect on T. gondii cell cycle (T. gondii cell cycle): arrested the T. gondii cell cycle

CCOc1ccc2cc(-c3nn(CC4CCN(C)CC4)c4ncnc(N)c34)ccc2c1 [BKI-1294]
EC50 (T. gondii TgCDPK1 G128M; read-out: TgCDPK1 G128M EC50 (95% CI), remaining host cell nuclei, 5 days): 1500 nM | EC50 (T. gondii parent strain): 230 nM | EC50 [1]: 66 nM | EC50 [2]: 22 nM | EC50 [4]: 3200 nM | EC50 (T. gondii TgCDPK1 G128T): 1700 nM | EC50 (T. gondii TgMAPKL1 L162Q): 450 nM

CC(C)(C)n1nc(Cc2cccc3ccccc23)c2c(N)ncnc21 [1-NM-PP1]
TgCDPK1 G128M fold increase EC50 (T. gondii TgCDPK1 G128M; [5]): 7.4 fold | EC50 (T. gondii parent strain): 19 nM | resistance conferred by TgMAPKL1 S191Y substitution (T. gondii TgMAPKL1 S191Y): conferred resistance | TgCDPK1 G128M TgMAPKL1 L162Q fold increase EC50 ([4]; double mutant vs parent strain, host cell nuclei assay): 89.5 fold | EC50 [4]: 1700 nM | EC50 (T. gondii TgMAPKL1 L162Q): 75 nM | TgMAPKL1 L162Q fold increase EC50 (T. gondii TgMAPKL1 L162Q; [5]): 3.9 fold

CCOc1ccc2cc(-c3nn(CC4CCN(C)CC4)c4ncnc(N)c34)ccc2n1 [BKI-1369]
IC50 (TgCDPK1 128G): 6 nM | Fold Increase EC50 [1]: 3.20 fold | EC50 [1]: 120 nM | EC50 [2]: 38 nM | Fold Increase IC50 (TgCDPK1 128M): 2246 fold | IC50 (TgCDPK1 128M): 13.7 µM
